Key:
[1] = Metabolic (microsomal) stability assay, human liver microsomes (HLM); assay type: in vitro ADME; settings: predicted clearance as percent of liver blood flow, 1 μM
Experimental: The metabolic degradation of the test compound is assayed at 37° C. with pooled liver microsomes (mouse (MLM), rat (RLM) or human (HLM)). The final incubation volume of 48 μL pertime point contains TRIS buffer (pH 7.5; 0.1 M), magnesium chloride (6.5 mM), microsomal protein (0.5 mg/mL for mouse/rat, 1 mg/mL for human specimens) and the test compound at a final concentration of 1 μM. Following a short preincubation period at 37° C., the reactions are initiated by addition of 12 μL beta-nicotinamide adenine dinucleotide phosphate, reduced form (NADPH, 10 mM) and terminated by transferring an aliquot into solvent after different time points (0, 5, 15, 30, 60 min). Additionally, the NADPH-independent degradation is monitored in incubations without NADPH, terminated at the last time point by addition of acetonitrile. The quenched incubations are pelleted by centrifugation (4,000 rpm, 15 min). An aliquot of the supernatant is assayed by LC-MS/MS to quantify the concentration of parent compound in the individual samples.
In vitro intrinsic clearance (CLint, in vitro) is calculated from the time course of the disappearance of the test drug during the microsomal incubation. Each plot is fitted to the first-order elimination rate constant as C(t)═C0*exp(−ke*t), where C(t) and C0 are the concentration of unchanged test drug at incubation time t and that at preincubation and ke is the disappearance rate constant of the unchanged drug. Subsequently, CLint in vitro (μL min^−1·amount protein) values are converted to predicted CLint,in vivo (mL min^−1 kg^−1) from incubation parameters according to the equation CLint, in vivo=CLint, in vitro×(incubation volume (ml)/amount protein (mg))×(amount protein (mg)/g liver tissue)×(liver weight/body wt.).
For better across species comparison the predicted clearance is expressed as percent of the liver blood flow [% QH] (mL min^−1·kg^−1) in the individual species. In general, high stability (corresponding to low % QH) of the compounds across species is desired.

[2] = test system: KRAS G12C-dependent Ba/F3 cells; assay: Ba/F3 proliferation assay, KRAS G12C; assay type: cell-based; settings: Mus musculus, BaF3, 72 h, AlamarBlue
Experimental: Plasmids containing KRASG12 mutants (i.e. […], G12C, G12V) are obtained from GeneScript. To generate KRASG12-dependent Ba/F3 models, Ba/F3 cells are transduced with retroviruses containing vectors that harbor KRASG12 isoforms. Platinum-E cells (Cell Biolabs) are used for retrovirus packaging. Retrovirus is added to Ba/F3 cells. To ensure infection, 4 μg/mL polybrene is added and cells are spinfected. […] Cells with an infection efficiency of 10% to 20% are further cultivated and puromycin selection with 1 μg/mL is initiated. As a control, parental Ba/F3 cells are used to show selection status. Selection is considered successful when parental Ba/F3 cells cultures died. To evaluate the transforming potential of KRASG12 mutations, the growth medium is no longer supplemented with IL-3. Ba/F3 cells harboring the empty vector are used as a control. Approximately ten days before conducting the experiments, puromycin is left out.
Compounds are added using an Access Labcyte Workstation with a Labcyte Echo 550 or 555 accoustic dispenser. All treatments are performed in technical duplicates. […] AlamarBlue™ (ThermoFisher), a viability stain, is added and fluorescence measured in the PerkinElmer Envision HTS Multilabel Reader. The raw data are imported into and analyzed with the Boehringer Ingelheim proprietary software MegaLab (curve fitting based on the program PRISM, GraphPad Inc.).

[3] = target: CYP3A4 (Homo sapiens (Human), UniProt P08684); assay: Mechanism based inhibition of CYP3A4 assay (MBI 3A4); assay type: in vitro ADME; settings: hydroxy-midazolam formation after 30 min vs 0 min preincubation, 25 uM, human liver microsomes
Sequence of CYP3A4 (P08684 whole entry): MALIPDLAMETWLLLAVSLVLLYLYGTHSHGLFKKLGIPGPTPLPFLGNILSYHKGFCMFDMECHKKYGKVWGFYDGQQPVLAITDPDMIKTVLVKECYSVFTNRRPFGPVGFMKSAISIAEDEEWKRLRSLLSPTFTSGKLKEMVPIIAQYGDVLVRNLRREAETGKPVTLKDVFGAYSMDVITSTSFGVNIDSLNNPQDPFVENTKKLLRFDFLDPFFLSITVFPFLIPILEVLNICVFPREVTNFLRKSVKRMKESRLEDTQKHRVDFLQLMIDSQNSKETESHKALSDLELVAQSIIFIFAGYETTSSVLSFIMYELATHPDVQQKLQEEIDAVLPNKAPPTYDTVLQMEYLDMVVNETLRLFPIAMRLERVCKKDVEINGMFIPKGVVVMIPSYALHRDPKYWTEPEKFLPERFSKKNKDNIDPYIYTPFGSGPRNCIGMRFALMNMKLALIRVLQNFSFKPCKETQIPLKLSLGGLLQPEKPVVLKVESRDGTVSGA
Experimental: After preincubation, the incubate is diluted 1:10 and the substrate midazolam is added for the main incubation (15 min). The main incubation is quenched with acetonitrile and the formation of hydroxy-midazolam is quantified via LC/MS-MS. The formation of hydroxy-midazolam from the 30 min preincubation relative to the formation from the 0 min preincubation is used as a readout. Values of less than 100% mean that the substrate midazolam is metabolized to a lower extent upon 30 min preincubation compared to 0 min preincubation. In general low effects upon 30 min preincubation are desired (corresponding to values close to 100%/not different to the values determined with water control).

[4] = Caco-2 assay (permeability PappAB, PappBA, efflux ratio); assay type: in vitro ADME; settings: human, Caco-2, 10 μM test compound, pH 7.4; for Papp A→B at 90 min, 10 μM: apical to basolateral; for efflux ratio at 90 min, 10 μM: efflux ratio PappBA/PappAB, read-out: Caco ER
Text: The assay provides information on the potential of a compound to pass the cell membrane, on the extent of oral absorption as well as on whether the compound is actively transported by uptake and/or efflux transporters. Permeability measurements across polarized, confluent Caco-2 cell monolayers grown on permeable filter supports (Corning, catalog #3391) are used. […] The receiver and donor compartments contain 0.25% bovine serum albumine (BSA) in assay buffer. Passive diffusion and/or active transport of compounds across the monolayer is measured in both apical to basolateral (a-b) and basolateral to apical (b-a) direction. a-b permeability (PappAB) represents drug absorption from the intestine into the blood and b-a permeability (PappBA) drug secretion from the blood back into the intestine via both passive permeability as well as active transport mechanisms mediated by efflux and uptake transporters that are expressed on the Caco-2 cells. After a pre-incubation of 25-30 min at 37° C., at predefined time points (0, 30, 60 and 90 min), samples were taken from the receiver and donor compartment, respectively. Concentrations of test compounds in samples were measured by HPLC/MS/MS, samples from the donor compartment were diluted 1:50 (v:v) with assay buffer, samples from receiver compartment were measured without dilution.
Apparent permeabilities in a-b (PappAB) and b-a (PappBA) directions are calculated according to the formula:
[formula] • Vrec [mL]: buffer volume in receiver compartment • Cdon [μmol/mL]: concentration of test compound in donor compartment at t=0 • ΔCrec: difference between concentrations of test compound in receiver compartment at start and end of incubation time • Δt: Incubation time • Vrec·ΔCrec/Δt [μmol/min]: Amount of compound transferred to receiver compartment per time • A [cm^2]: filter surface
Caco-2 efflux ratios (ER) are calculated as the ratio of PappBA/PappAB.

Row | HLM QH [1] [%] | IC50 [2] [nM] | MBI 3A4 [3] [%] | Papp A→B at 90 min, 10 μM [4] [×10⁻⁶ cm/s] | efflux ratio at 90 min, 10 μM [4] | SMILES
1 | 28 | 19 | – | – | – | C[C@H](Oc1cc(-c2cn(C3COC3)nn2)nc(-c2noc3c2CCC[C@@]32CCCc3sc(N)c(C#N)c32)n1)[C@@H]1CCCN1C [II-100]
2 | <24 | 106 | 25 | – | – | C[C@H](Oc1cc(N2C[C@H](C)NC3(CC3)C2)nc(-c2onc3c2CCC[C@@]32CCCc3sc(N)c(C#N)c32)n1)[C@@H]1CCCN1C [I-8]
3 | <24 | 97 | – | – | – | C[C@H](Oc1cc(-n2cnc3cccnc32)nc(-c2noc3c2CCC[C@@]32CCCc3sc(N)c(C#N)c32)n1)[C@@H]1CCCN1C [II-65]
4 | <24 | 157 | – | – | – | C[C@H](Oc1cc(N2CCc3cccnc32)nc(-c2noc3c2CCC[C@@]32CCCc3sc(N)c(C#N)c32)n1)[C@@H]1CCCN1C [II-90]
5 | 31 | 51 | – | 2 | 7 | C[C@H](Oc1cc(-c2ccc(N)nc2)nc(-c2noc3c2CCC[C@@]32CCCc3sc(N)c(C#N)c32)n1)[C@@H]1CCCN1C [II-101]
6 | <24 | 264 | – | – | – | C[C@H](Oc1cc(N2CCN3CCC3C2)nc(-c2onc3c2CCC[C@@]32CCCc3sc(N)c(C#N)c32)n1)[C@@H]1CCCN1C (stereo partly drawn) [I-9]
7 | 72 | 15 | – | – | – | C[C@H](Oc1cc(-c2ccn(C3COC3)n2)nc(-c2noc3c2CCC[C@@]32CCCc3sc(N)c(C#N)c32)n1)[C@@H]1C[C@H](F)CN1C [II-83]
8 | <24 | 28 | 72 | – | – | C[C@H](Oc1cc(C2=CCOCC2)nc(-c2noc3c2CCC[C@@]32CCCc3sc(N)c(C#N)c32)n1)[C@@H]1CCCN1C [II-67]
9 | 34 | 14 | – | – | – | C[C@H](Oc1cc(N2CCOC3(COC3)C2)nc(-c2noc3c2CCC[C@@]32CCCc3sc(N)c(C#N)c32)n1)[C@@H]1CCCN1C [II-77]
10 | <24 | 36 | – | – | – | C[C@H](Oc1cc(-c2ccn(-c3ccsc3)n2)nc(-c2noc3c2CCC[C@@]32CCCc3sc(N)c(C#N)c32)n1)[C@@H]1CCCN1C [II-84]
11 | <24 | 50 | 81 | – | – | C[C@H](Oc1cc(-c2cnn(C)c2)nc(-c2noc3c2CCC[C@@]32CCCc3sc(N)c(C#N)c32)n1)[C@@H]1CCCN1C [II-74]
12 | <24 | 47 | – | – | – | C[C@H](Oc1cc(-n2cccc3cnnc2-3)nc(-c2noc3c2CCC[C@@]32CCCc3sc(N)c(C#N)c32)n1)[C@@H]1CCCN1C [II-92]
13 | 45 | 24 | – | – | – | Cc1nccn1-c1cc(O[C@@H](C)[C@@H]2CCCN2C)nc(-c2noc3c2CCC[C@@]32CCCc3sc(N)c(C#N)c32)n1 [II-79]
14 | 37 | 314 | – | – | – | C[C@H](Oc1cc(N2CCNC[C@@]23CCOC3)nc(-c2noc3c2CCC[C@@]32CCCc3sc(N)c(C#N)c32)n1)[C@@H]1CCCN1C [II-51]
15 | 41 | 22 | – | – | – | C[C@H](Oc1cc(N2CCCC3(COC3)C2)nc(-c2noc3c2CCC[C@@]32CCCc3sc(N)c(C#N)c32)n1)[C@@H]1CCCN1C [II-72]
16 | 43 | 25 | – | 1.1 | 30.9 | C[C@H](Oc1cc(-n2cc(Cn3ccnc3)nn2)nc(-c2noc3c2CCC[C@@]32CCCc3sc(N)c(C#N)c32)n1)[C@@H]1CCCN1C [II-113]
17 | 30 | 21 | – | – | – | C[C@H](Oc1cc(-c2cncs2)nc(-c2noc3c2CCC[C@@]32CCCc3sc(N)c(C#N)c32)n1)[C@@H]1CCCN1C [II-80]
18 | 53 | 10 | 52 | – | – | C[C@H](Oc1cc(N2CCCC2=O)nc(-c2noc3c2CCC[C@@]32CCCc3sc(N)c(C#N)c32)n1)[C@@H]1CCCN1C [II-73]
19 | 37 | 9 | – | 1 | 33.7 | C[C@H](Oc1cc(-n2cc(Cn3cncn3)nn2)nc(-c2noc3c2CCC[C@@]32CCCc3sc(N)c(C#N)c32)n1)[C@@H]1CCCN1C [II-124]
20 | <24 | 7 | 53 | – | – | Cc1nc(-c2cc(O[C@@H](C)[C@@H]3CCCN3C)nc(-c3noc4c3CCC[C@@]43CCCc4sc(N)c(C#N)c43)n2)cs1 [II-103]
21 | 44 | 16 | – | – | – | C[C@H](Oc1cc(-n2ccnc2Cl)nc(-c2noc3c2CCC[C@@]32CCCc3sc(N)c(C#N)c32)n1)[C@@H]1CCCN1C [II-93]
22 | 27 | 9 | – | – | – | C[C@H](Oc1cc(N2CCNC2=O)nc(-c2noc3c2CCC[C@@]32CCCc3sc(N)c(C#N)c32)n1)[C@@H]1CCCN1C [II-64]
23 | <24 | 608 | – | – | – | C[C@H]1CN(C)CCCN1c1cc(N2CCN(C)CC2)nc(-c2onc3c2CCC[C@@]32CCCc3sc(N)c(C#N)c32)n1 [I-7]
24 | 51 | 4 | – | – | – | C[C@H](Oc1cc(-n2ccc(C#N)n2)nc(-c2noc3c2CCC[C@@]32CCCc3sc(N)c(C#N)c32)n1)[C@@H]1CCCN1C [II-102]
25 | <24 | 47 | – | – | – | C[C@H](Oc1cc(N2CCOC3(CC3)C2)nc(-c2noc3c2CCC[C@@]32CCCc3sc(N)c(C#N)c32)n1)[C@@H]1CCCN1C [II-61]
26 | 75 | 6 | – | – | – | C[C@H](Oc1cc(-n2ccncc2=O)nc(-c2noc3c2CCC[C@@]32CCCc3sc(N)c(C#N)c32)n1)[C@@H]1CCCN1C [II-116]
27 | <24 | 114 | 74 | – | – | C[C@H](Oc1cc(N2Cc3cnn(C)c3C2)nc(-c2noc3c2CCC[C@@]32CCCc3sc(N)c(C#N)c32)n1)[C@@H]1CCCN1C [II-63]
28 | – | 12 | 79 | < 10 | 1.1 | C[C@H](Oc1cc(-n2cncc3ccnc2-3)nc(-c2noc3c2CCC[C@@]32CCCc3sc(N)c(C#N)c32)n1)[C@@H]1CCCN1C [II-105]
29 | <24 | 29 | – | – | – | C[C@H](Oc1cc(-c2cn(C3CCOCC3)nn2)nc(-c2noc3c2CCC[C@@]32CCCc3sc(N)c(C#N)c32)n1)[C@@H]1CCCN1C [II-115]
